Results as given in patent US20160145300A1, “ARTIFICIAL DECAPEPTIDE, MEDICATION AND METHOD OF INDUCING BREEDING OF CRUSTACEANS” (National Pingtung University of Science and technology, priority 2014, published 2016).
Marks after values point to notes of the source that are not given here.

Experiments:
Assay type in all cases: in vivo
[1] = tested on: male shrimps (Litopenaeus vannamei); assay: maturity of spermatophore in male shrimps after administration of sustainable releasing dosage
Method: After these, an effective amount of the artificially decapeptide is administrated to a crustacean, wherein, the effective amount of the artificially decapeptide may be 10 nanograms (ng) to 1000 ng, preferably 50 ng, per gram of body weight for each administrating. In one embodiment of the present embodiment a sustainable releasing dosage of the artificial decapeptide may be optionally prepared and administrated to the crustacean, so as to simplify the administration process. A method of preparing the sustainable releasing dosage of the artificially decapeptide, for example, may include formulating a great amount of the artificially decapeptide in an excipient, such as an excipient including oil. For example, 100 ng to 2000 ng of the artificially decapeptide may be formulated in 50 microliter (μl) to 200 μl of the excipient. With such arrangement, while the sustainable releasing dosage of the artificially decapeptide is administrated to the crustacean, the artificially decapeptide therein may be allowed to progressively release in the crustacean, thereby extending the inducing effect to the crustacean. […]
(§1) In the present test, the artificial decapetide is firstly formulated in the aforementioned sustainable releasing dosage and then administrated to each Litopenaeus vannamei. After that, the spermatophore development of each male shrimp is determined and recorded every 4 days after the administration, through observing the external characteristics spermatophore. Also, the spermatophore weight, as well as the sperm count, is precisely measured 44 days after the administration. On the other hand, the ovarian development of each female shrimp is also determined and recorded weekly 2-4 months after the administration through observing the external characteristics and the maturity of ovarian. Furthermore, the spawning times of each female shrimp may be also recorded. […]

[2] = tested on: female shrimps (Litopenaeus vannamei); assay: spawning times of female shrimps after administration
Method: (§2) After these, an effective amount of the artificially decapeptide is administrated to a crustacean, wherein, the effective amount of the artificially decapeptide may be 10 nanograms (ng) to 1000 ng, preferably 50 ng, per gram of body weight for each administrating. In one embodiment of the present embodiment a sustainable releasing dosage of the artificial decapeptide may be optionally prepared and administrated to the crustacean, so as to simplify the administration process. A method of preparing the sustainable releasing dosage of the artificially decapeptide, for example, may include formulating a great amount of the artificially decapeptide in an excipient, such as an excipient including oil. For example, 100 ng to 2000 ng of the artificially decapeptide may be formulated in 50 microliter (μl) to 200 μl of the excipient. With such arrangement, while the sustainable releasing dosage of the artificially decapeptide is administrated to the crustacean, the artificially decapeptide therein may be allowed to progressively release in the crustacean, thereby extending the inducing effect to the crustacean. Thus, in another embodiment of the present invention, the sustainable releasing dosage of the artificially decapeptide may be administrated to the crustacean every three to six months, preferably every four months, but not limited thereto. In other embodiment of the present invention, the artificially decapeptide may also be firstly formulated in saline, to forma solvent, and then, mixed with the excipient, wherein a volume ratio between the solvent and the excipient may be 1:1 to 1:3. Furthermore, in another embodiment, the excipient may include mineral oil, such as […] or incomplete adjuvant; vegetable oil, such as peanut oil, olive oil or coconut oil; fat adhesive, such as methylcellulose; or a composite of the aforementioned oil.
In the present test, the artificial decapeptide of the present invention is exemplified on numbers of Litopenaeus vannamei (Decapoda: Macrura). […]
as §1

[3] = tested on: female shrimps (Litopenaeus vannamei); assay: ovarian development of female shrimps after administration; details: recorded weekly 2-4 months after the administration, percentage relative to overall Litopenaeus vannamei in the test
Method: as §2
In the present test, the artificial decapeptide of the present invention is exemplified on numbers of Litopenaeus vannamei (Decapoda: Macrura). However, people in the art should easily realize the present invention is not limited thereto.
In the present test, the artificial decapetide is firstly formulated in the aforementioned sustainable releasing dosage and then administrated to each Litopenaeus vannamei. After that, the spermatophore development of each male shrimp is determined and recorded every 4 days after the administration, through observing the external characteristics spermatophore. Also, the spermatophore weight, as well as the sperm count, is precisely measured 44 days after the administration. On the other hand, the ovarian development of each female shrimp is also determined and recorded weekly 2-4 months after the administration through observing the external characteristics and the maturity of ovarian. Furthermore, the spawning times of each female shrimp may be also recorded. Please refer to TABLEs 1-3 and FIGS. 1-2, which illustrate gonadal promoting effects of the artificial decapeptide either on male or female shrimps (Litopenaeus vannamei). Wherein, TABLE 1 and FIGS. 1-2 show the maturity of spermatophore in male shrimps, including the development stage, spermatophore weight and sperm count per spermatophore, after the artificial decapeptide is administrated, in comparison with untreated male shrimps (control; marked as B in FIGS. 1-2), respectively.

[4] = 44 days after the administration

artificial decapeptide: Synthetic 10-amino-acid peptide based on chicken GnRH-II (SEQ ID NO: 2); N-terminal Glu and C-terminal Gly unblocked (H-EHWSHGWYPG-OH; listed as Gallus gallus)
sperm count per spermatophore [1, 4]: 68.5 ± 18.14 10^5/per spermatophore
spermatophore weight [1, 4]: 0.0217 ± 0.007 g
spermatophore development stage reached ([1]; in 44 days after the administration): 2.5
percentage of female shrimps with spawning times 0 ([2]; 0 spawnings, 8-16 weeks after administrating, percentage relative to overall Litopenaeus vannamei in the test): 20%^b
percentage of female shrimps with spawning times 3 ([2]; 3 spawnings, 8-16 weeks after administrating, percentage relative to overall Litopenaeus vannamei in the test): 0%^b
effective period ([2]; compared with current techniques (around one month)): between two and four
number of spawnings induced ([2]; compared with current techniques (fewer times of spawning)): four
percentage of female shrimps at ovarian development stage 0 ([3]; stage 0): 0%^b
percentage of female shrimps at ovarian development stage 0.5 ([3]; stage 0.5): 20%^b
percentage of female shrimps at ovarian development stage 1 ([3]; stage 1): 0%^b
percentage of female shrimps at ovarian development stage 1.5 ([3]; stage 1.5): 0%^b
percentage of female shrimps at ovarian development stage 2 ([3]; stage 2): 0%^b
percentage of female shrimps at ovarian development stage 2.5 ([3]; stage 2.5): 0%^b
percentage of female shrimps at ovarian development stage 3 ([3]; stage 3): 0%^b
